Test results: patent publication US20250129054A1 (Terran Biosciences Inc., priority 2022, published 2025)

Test: Serial tail vein bleed PK study in SD rats: methylone measured in plasma after IV or oral methylone or oral methylone prodrugs
Type: in vivo, Sprague Dawley rats
Details: 10 mg/kg, rat
Method: A pharmacokinetic (PK) study was performed in three male Sprague-Dawley (SD) rats following intravenous (IV) and oral (PO) administration of methylone at 1 mg/kg (IV) and 10 mg/kg (PO) respectively, or test compounds (prodrugs of methylone) at 10 mg/kg (PO). Parent compound (methylone) was measured in plasma.
Samples were sent for method optimization and measurement of parent compound (methylone) via unique calibration lines and following acceptance QC's. Dose formulation concentrations were also measured, and PK parameters were determined (Cmax (ng/mL), Tmax (hr), Cl (ml/min/kg), Vdss (L/kg), t½(hr), AUC0-t (ng/mL*hr), AUC0-inf (ng/mL*hr), MIRT (hr), Bioavailability ([…]) where warranted) using WinNon Lin software. Data (including bioanalytical results and assay performance) were reported in a tabulated format.
Formulation for PO Administration: For PO dosing, the prodrug was formulated in 10% DMSO/20% PEG400/70% water to a concentration of 2 mg free metabolite material/mL. This provided a dose of 10 mg free metabolite/kg when the prodrug was administered PO in 5 mL/kg dosing volumes.
Formulation for IV administration: For IV dosing, rac-methylone was formulated as solution in saline to a concentration of 0.5 mg free metabolite material/mL. This provided a dose of 1 mg free metabolite/kg when administered IV in 2 mL/kg dosing volumes.
The pharmacokinetic properties of the synthesized methylone prodrugs after oral administration in a rat model were assessed. The concentration of methylone was measured in each rat at various sampling timepoints after IV or oral administration of rac-methylone or the synthesized methylone prodrugs to rats.
Dose formulations were made at equivalent concentrations of active compound (methylone) adjusted for molecular weight of the compounds. The synthesized methylone prodrugs or analogs were dosed at 10 mg/kg oral (PO) nominal dose. Nominal doses were used in PK parameter determinations. The parent compound (methylone) was dosed at 1 mg/kg intravenous (IV) and 10 mg/kg (PO).

[1] = 0.500 h after oral dosing of the prodrug, individual animals
[2] = 0.500 h after oral dosing of the prodrug, mean
[3] = 1.00 h after oral dosing of the prodrug, individual animals
[4] = 1.00 h after oral dosing of the prodrug, mean
[5] = 2.00 h after oral dosing of the prodrug, individual animals
[6] = 2.00 h after oral dosing of the prodrug, mean
[7] = 4.00 h after oral dosing of the prodrug, individual animals
[8] = 4.00 h after oral dosing of the prodrug, mean
[9] = 7.00 h after oral dosing of the prodrug, individual animals
[10] = 7.00 h after oral dosing of the prodrug, mean
[11] = 24.0 h after oral dosing of the prodrug, individual animals
[12] = 24.0 h after oral dosing of the prodrug, mean

SMILES	Plasma Concentrations of metabolite methylone [1]	Plasma Concentrations of metabolite methylone [2]	Plasma Concentrations of metabolite methylone [3]	Plasma Concentrations of metabolite methylone [4]	Plasma Concentrations of metabolite methylone [5]	Plasma Concentrations of metabolite methylone [6]	Plasma Concentrations of metabolite methylone [7]	Plasma Concentrations of metabolite methylone [8]	Plasma Concentrations of metabolite methylone [9]	Plasma Concentrations of metabolite methylone [10]	Plasma Concentrations of metabolite methylone [11]	Plasma Concentrations of metabolite methylone [12]
CC(C(=O)c1ccc2c(c1)OCO2)N(C)C(=O)CCCC(=O)O (stereo not drawn) [Compound 8D, 4-{[2-(2H-1,3-Benzodioxol-5-yl)-1-methyl-2-oxo-ethyl]-N-methylcarbamoyl}butyric acid]	BLQ (Below Lower Limit of Quantification (0.5 ng/mL))	BLQ (Below Lower Limit of Quantification (0.5 ng/mL))	BLQ (Below Lower Limit of Quantification (0.5 ng/mL))	BLQ (Below Lower Limit of Quantification (0.5 ng/mL))	BLQ (Below Lower Limit of Quantification (0.5 ng/mL))	BLQ (Below Lower Limit of Quantification (0.5 ng/mL))	BLQ (Below Lower Limit of Quantification (0.5 ng/mL))	BLQ (Below Lower Limit of Quantification (0.5 ng/mL))	BLQ (Below Lower Limit of Quantification (0.5 ng/mL))	BLQ (Below Lower Limit of Quantification (0.5 ng/mL))	BLQ (Below Lower Limit of Quantification (0.5 ng/mL))	BLQ (Below Lower Limit of Quantification (0.5 ng/mL))
CC(C(=O)c1ccc2c(c1)OCO2)N(C)C(=O)OC(C)(C)C (stereo not drawn) [Compound 2A, tert-Butyl N-[2-(1,3-benzodioxol-5-yl)-1-methyl-2-oxo-ethyl]-N-methyl-carbamate]	BLQ (Below Lower Limit of Quantification (0.5 ng/mL))	BLQ (Below Lower Limit of Quantification (0.5 ng/mL))	BLQ (Below Lower Limit of Quantification (0.5 ng/mL))	BLQ (Below Lower Limit of Quantification (0.5 ng/mL))	BLQ (Below Lower Limit of Quantification (0.5 ng/mL))	BLQ (Below Lower Limit of Quantification (0.5 ng/mL))	BLQ (Below Lower Limit of Quantification (0.5 ng/mL))	BLQ (Below Lower Limit of Quantification (0.5 ng/mL))	BLQ (Below Lower Limit of Quantification (0.5 ng/mL))	BLQ (Below Lower Limit of Quantification (0.5 ng/mL))	BLQ (Below Lower Limit of Quantification (0.5 ng/mL))	BLQ (Below Lower Limit of Quantification (0.5 ng/mL))
CC(C(=O)c1ccc2c(c1)OCO2)N(C)C(=O)[C@H](CCCCNC(=O)OC(C)(C)C)NC(=O)OC(C)(C)C (stereo partly drawn) [Compound 3E, tert-Butyl N-[(5S)-6-[[2-(1,3-benzodioxol-5-yl)-1-methyl-2-oxo-ethyl]-methyl-amino]-5-(tert-butoxycarbonylamino)-6-oxo-hexyl]carbamate]	BLQ (Below Lower Limit of Quantification (0.5 ng/mL))	BLQ (Below Lower Limit of Quantification (0.5 ng/mL))	BLQ (Below Lower Limit of Quantification (0.5 ng/mL))	BLQ (Below Lower Limit of Quantification (0.5 ng/mL))	BLQ (Below Lower Limit of Quantification (0.5 ng/mL))	BLQ (Below Lower Limit of Quantification (0.5 ng/mL))	BLQ (Below Lower Limit of Quantification (0.5 ng/mL))	BLQ (Below Lower Limit of Quantification (0.5 ng/mL))	BLQ (Below Lower Limit of Quantification (0.5 ng/mL))	BLQ (Below Lower Limit of Quantification (0.5 ng/mL))	BLQ (Below Lower Limit of Quantification (0.5 ng/mL))	BLQ (Below Lower Limit of Quantification (0.5 ng/mL))
